In PubChem BioAssay AID2060492 (Molecular Pharmacology Branch, DTP, NCI, 2025):

Tested on: 695427-040-R-J1-PDC complex spheroids, viability percent T/C
Assay: Anticancer human tumor 695427-040-R-J1-PDC patient-derived colon adenocarcinoma cell line growth inhibition [GQUAD]
Conditions: for IC50: curve of first compound; for viability, T/C: stronger effect = lower value
How it was run: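 Tumor cells were grown as complex spheroids with HUVEC endothelial cells and mesenchymal stem cells as stroma. G-quadruplex stabilizers were combined with targeted agents over half-log dilutions from near the clinical Cmax, or from 10 microM.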

[1] = second compound 0.0316 µM, first compound 0.0316 µM
[2] = second compound 0.0316 µM, first compound 0.1 µM
[3] = second compound 0.0316 µM, first compound 0.316 µM
[4] = second compound 0.0316 µM, first compound 1 µM
[5] = second compound 0.0316 µM, first compound 3.16 µM
[6] = second compound 0.0316 µM, first compound 10 µM
[7] = second compound 0.1 µM, first compound 0.0316 µM
[8] = second compound 0.1 µM, first compound 0.1 µM
[9] = second compound 0.1 µM, first compound 0.316 µM
[10] = second compound 0.1 µM, first compound 1 µM
[11] = second compound 0.1 µM, first compound 3.16 µM
[12] = second compound 0.1 µM, first compound 10 µM
[13] = second compound 0.316 µM, first compound 0.0316 µM
[14] = second compound 0.316 µM, first compound 0.1 µM
[15] = second compound 0.316 µM, first compound 0.316 µM
[16] = second compound 0.316 µM, first compound 1 µM
[17] = second compound 0.316 µM, first compound 3.16 µM
[18] = second compound 0.316 µM, first compound 10 µM
[19] = second compound 1 µM, first compound 0.0316 µM
[20] = second compound 1 µM, first compound 0.1 µM
[21] = second compound 1 µM, first compound 0.316 µM
[22] = second compound 1 µM, first compound 1 µM
[23] = second compound 1 µM, first compound 3.16 µM
[24] = second compound 1 µM, first compound 10 µM
[25] = second compound 3.16 µM, first compound 0.0316 µM
[26] = second compound 3.16 µM, first compound 0.1 µM
[27] = second compound 3.16 µM, first compound 0.316 µM
[28] = second compound 3.16 µM, first compound 1 µM
[29] = second compound 3.16 µM, first compound 3.16 µM
[30] = second compound 3.16 µM, first compound 10 µM
[31] = second compound 10 µM, first compound 0.0316 µM
[32] = second compound 10 µM, first compound 0.1 µM
[33] = second compound 10 µM, first compound 0.316 µM
[34] = second compound 10 µM, first compound 1 µM
[35] = second compound 10 µM, first compound 3.16 µM
[36] = second compound 10 µM, first compound 10 µM
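Also: spheroids exposed to compounds for seven days before readout.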

C#Cc1c(F)ccc2cc(O)cc(-c3ncc4c(N5CC6CCC(C5)N6)nc(OCC56CCCN5CC(F)C6)nc4c3F)c12 (stereo unspecified) + Cc1cnc(CNC(=O)c2c(=O)c3ccc(N4CCCN(C)CC4)nc3n3c2sc2ccccc23)cn1
IC50 (second compound 0.0316 µM): > 10 µM | IC50 (second compound 0.1 µM): > 10 µM | IC50 (second compound 0.316 µM): > 10 µM | IC50 (second compound 1 µM): > 10 µM | IC50 (second compound 3.16 µM): < 0.0316 µM | IC50 (second compound 10 µM): < 0.0316 µM | viability, T/C [1]: 103% | viability, T/C [2]: 94.4% | viability, T/C [3]: 87.1% | viability, T/C [4]: 73.2% | viability, T/C [5]: 76.9% | viability, T/C [6]: 65.4% | viability, T/C [7]: 110% | viability, T/C [8]: 69.8% | viability, T/C [9]: 85% | viability, T/C [10]: 71.5% | viability, T/C [11]: 71.4% | viability, T/C [12]: 58.7% | viability, T/C [13]: 82.5% | viability, T/C [14]: 78.9% | viability, T/C [15]: 51.1% | viability, T/C [16]: 65.7% | viability, T/C [17]: 63.2% | viability, T/C [18]: 52.2% | viability, T/C [19]: 79.8% | viability, T/C [20]: 52.5% | viability, T/C [21]: 61.8% | viability, T/C [22]: 60.4% | viability, T/C [23]: 65% | viability, T/C [24]: 46.6% | viability, T/C [25]: 37.6% | viability, T/C [26]: 51.7% | viability, T/C [27]: 47.2% | viability, T/C [28]: 33.4% | viability, T/C [29]: 47% | viability, T/C [30]: 30.4% | viability, T/C [31]: 22.1% | viability, T/C [32]: 29.2% | viability, T/C [33]: 41.9% | viability, T/C [34]: 31.3% | viability, T/C [35]: 29.9% | viability, T/C [36]: 0.83%

CC(=O)O[C@H]1C(=O)[C@@]2(C)[C@H]([C@H](OC(=O)c3ccccc3)[C@]3(O)C[C@H](OC(=O)[C@H](O)[C@@H](NC(=O)c4ccccc4)c4ccccc4)C(C)=C1C3(C)C)[C@]1(OC(C)=O)CO[C@@H]1C[C@@H]2O + Cc1cnc(CNC(=O)c2c(=O)c3ccc(N4CCCN(C)CC4)nc3n3c2sc2ccccc23)cn1
IC50 (second compound 0.0316 µM): > 10 µM | IC50 (second compound 0.1 µM): > 10 µM | IC50 (second compound 0.316 µM): > 10 µM | IC50 (second compound 1 µM): > 10 µM | IC50 (second compound 3.16 µM): < 0.0316 µM | IC50 (second compound 10 µM): < 0.0316 µM | viability, T/C [1]: 102% | viability, T/C [2]: 84.2% | viability, T/C [3]: 85.5% | viability, T/C [4]: 63.7% | viability, T/C [5]: 65% | viability, T/C [6]: 54.4% | viability, T/C [7]: 90.5% | viability, T/C [8]: 82.6% | viability, T/C [9]: 91.5% | viability, T/C [10]: 57.8% | viability, T/C [11]: 71.8% | viability, T/C [12]: 66.2% | viability, T/C [13]: 80.4% | viability, T/C [14]: 76.3% | viability, T/C [15]: 62.3% | viability, T/C [16]: 62% | viability, T/C [17]: 65.7% | viability, T/C [18]: 71.3% | viability, T/C [19]: 65.3% | viability, T/C [20]: 67.5% | viability, T/C [21]: 65.9% | viability, T/C [22]: 51.3% | viability, T/C [23]: 76.5% | viability, T/C [24]: 59.5% | viability, T/C [25]: 40.7% | viability, T/C [26]: 43.6% | viability, T/C [27]: 56.9% | viability, T/C [28]: 44.3% | viability, T/C [29]: 60.4% | viability, T/C [30]: 58% | viability, T/C [31]: 30.6% | viability, T/C [32]: 30% | viability, T/C [33]: 43.5% | viability, T/C [34]: 43.6% | viability, T/C [35]: 44.2% | viability, T/C [36]: 24.8%

CCCS(=O)(=O)Nc1ccc(F)c(C(=O)c2c[nH]c3ncc(-c4ccc(Cl)cc4)cc23)c1F + Cc1cnc(CNC(=O)c2c(=O)c3ccc(N4CCCN(C)CC4)nc3n3c2sc2ccccc23)cn1
IC50 (second compound 0.0316 µM): 8.41 µM | IC50 (second compound 0.1 µM): > 10 µM | IC50 (second compound 0.316 µM): > 10 µM | IC50 (second compound 1 µM): 6.32 µM | IC50 (second compound 3.16 µM): 3.27 µM | IC50 (second compound 10 µM): < 0.0316 µM | viability, T/C [1]: 101% | viability, T/C [2]: 93.9% | viability, T/C [3]: 107% | viability, T/C [4]: 96% | viability, T/C [5]: 110% | viability, T/C [6]: 40.9% | viability, T/C [7]: 105% | viability, T/C [8]: 70.4% | viability, T/C [9]: 78.9% | viability, T/C [10]: 82.4% | viability, T/C [11]: 98.1% | viability, T/C [12]: 52.8% | viability, T/C [13]: 85% | viability, T/C [14]: 64.3% | viability, T/C [15]: 82.9% | viability, T/C [16]: 91.3% | viability, T/C [17]: 101% | viability, T/C [18]: 55.1% | viability, T/C [19]: 64.3% | viability, T/C [20]: 76.5% | viability, T/C [21]: 74.1% | viability, T/C [22]: 67.3% | viability, T/C [23]: 96.4% | viability, T/C [24]: 33% | viability, T/C [25]: 43.9% | viability, T/C [26]: 42.7% | viability, T/C [27]: 55.2% | viability, T/C [28]: 63.4% | viability, T/C [29]: 52.7% | viability, T/C [30]: 0.43% | viability, T/C [31]: 32.7% | viability, T/C [32]: 34.5% | viability, T/C [33]: 38.7% | viability, T/C [34]: 34.6% | viability, T/C [35]: 22.8% | viability, T/C [36]: 0.26%
